{"source": "patent US20140094424A1", "about": "“MICROBICIDAL COMPOSITIONS AND METHODS OF PRODUCTION USE THEREOF” (priority 2011, published 2014)", "key": {"[1]": {"system": "Gram positive rods (S)", "experiment": "MBC (minimum bactericidal concentration) test in Wash NEXT reagent", "type": "cell-based", "method": "(§1) The stock organisms were thawed and subbed prior to beginning the MBC test. Molds were subbed to SDA plates one week before, and the bacteria were subbed to TAT agar plates 24 hours prior to the start of the test. All plates were incubated at 32 degrees C.\n(§2) Each bacterial organism was inoculated into 40 ml sterile saline in a centrifuge tube to create a density of MacFarland #1. Two serial dilutions of 1:100 were then made, resulting in 10^−2 and 10^−4 concentrations. Each dilution was vortexed before it was sampled, and sterile Eppendorf pipette tips were used to make each transfer. The 10^−4 dilution was spiral plated to yield the initial inoculum concentration.\n(§3) MBC trays were set up with the prepared test reagent. Using a Matrix pipettor, 100 μl aliquots of reagent were distributed into the wells, diluting the amount of preservative from 100% to 10% increments, using unpreserved reagent as the diluent. In one row, 100% non-preserved reagent acted as a positive control and served as a benchmark for a full mat of growth. In well #12H, 100 μl unpreserved reagent was pipetted, and this well was not inoculated with organisms, as it served as the negative control. Once all of the trays were prepared, the prepared bacteria/mold suspensions were poured into the MBC inoculating trays. These were placed onto the reagent trays, and 0.01 ml inoculum was introduced into the 100 μl of reagent in each well.\n(§4) This was done by dipping a sterile cotton swab into each well, and absorbing all of the liquid in the well. The swab was rolled onto a TAT agar plate ensuring that the entire swab touches the agar. Plates ware incubated at 32 degrees C. for 48 hours to 7 days, depending on the organism. Observations for growth were performed by a scoring matrix using + for a full mat, +/− for some growth, a numerical value for an actual colony count, and—for no growth.\n(§5) Below are tables that contain the data obtained in Example 1. The MBC test is scored by (+) indicating a full grown mat of organisms, equivalent to the organisms in the unpreserved reagent. (+/−) indicates there is some kill evident disturbing that mat or bringing the quantities down to an almost countable level. An actual number is the actual number of colonies growing at that concentration of preservative. (−) indicates no growth found. The MBC trays were stored at room temperature for the entire test.\n(§6) The materials and methods and analysis of the MBC test were the same as in Example 1."}, "[2]": {"system": "Pseudomonas aeruginosa (AY)", "experiment": "MBC (minimum bactericidal concentration) test in Wash NEXT reagent", "type": "cell-based", "method": "as §1, §2, §3, §4, §5, §6"}}}
{"substance": "gentamicin", "values": [{"measurement": "MBC test growth score", "setting": "[1]; 10% preservative, 8 hour", "value": "−"}, {"measurement": "MBC test growth score", "setting": "[1]; 10% preservative, 24 hour", "value": "−"}, {"measurement": "MBC test growth score", "setting": "[1]; 10% preservative, 48 hour", "value": "−"}, {"measurement": "MBC test growth score", "setting": "[1]; 10% preservative, 72 hour", "value": "−"}, {"measurement": "MBC test growth score", "setting": "[1]; 20% preservative, 8 hour", "value": "−"}, {"measurement": "MBC test growth score", "setting": "[1]; 20% preservative, 24 hour", "value": "−"}, {"measurement": "MBC test growth score", "setting": "[1]; 20% preservative, 48 hour", "value": "−"}, {"measurement": "MBC test growth score", "setting": "[1]; 20% preservative, 72 hour", "value": "−"}, {"measurement": "MBC test growth score", "setting": "[1]; 30% preservative, 8 hour", "value": "−"}, {"measurement": "MBC test growth score", "setting": "[1]; 30% preservative, 24 hour", "value": "−"}, {"measurement": "MBC test growth score", "setting": "[1]; 30% preservative, 48 hour", "value": "−"}, {"measurement": "MBC test growth score", "setting": "[1]; 30% preservative, 72 hour", "value": "−"}, {"measurement": "MBC test growth score", "setting": "[1]; 40% preservative, 8 hour", "value": "−"}, {"measurement": "MBC test growth score", "setting": "[1]; 40% preservative, 24 hour", "value": "−"}, {"measurement": "MBC test growth score", "setting": "[1]; 40% preservative, 48 hour", "value": "−"}, {"measurement": "MBC test growth score", "setting": "[1]; 40% preservative, 72 hour", "value": "−"}, {"measurement": "MBC test growth score", "setting": "[1]; 50% preservative, 8 hour", "value": "−"}, {"measurement": "MBC test growth score", "setting": "[1]; 50% preservative, 24 hour", "value": "−"}, {"measurement": "MBC test growth score", "setting": "[1]; 50% preservative, 48 hour", "value": "−"}, {"measurement": "MBC test growth score", "setting": "[1]; 50% preservative, 72 hour", "value": "−"}, {"measurement": "MBC test growth score", "setting": "[1]; 60% preservative, 8 hour", "value": "−"}, {"measurement": "MBC test growth score", "setting": "[1]; 60% preservative, 24 hour", "value": "−"}, {"measurement": "MBC test growth score", "setting": "[1]; 60% preservative, 48 hour", "value": "−"}, {"measurement": "MBC test growth score", "setting": "[1]; 60% preservative, 72 hour", "value": "−"}, {"measurement": "MBC test growth score", "setting": "[1]; 70% preservative, 8 hour", "value": "−"}, {"measurement": "MBC test growth score", "setting": "[1]; 70% preservative, 24 hour", "value": "−"}, {"measurement": "MBC test growth score", "setting": "[1]; 70% preservative, 48 hour", "value": "−"}, {"measurement": "MBC test growth score", "setting": "[1]; 70% preservative, 72 hour", "value": "−"}, {"measurement": "MBC test growth score", "setting": "[1]; 80% preservative, 8 hour", "value": "−"}, {"measurement": "MBC test growth score", "setting": "[1]; 80% preservative, 24 hour", "value": "−"}, {"measurement": "MBC test growth score", "setting": "[1]; 80% preservative, 48 hour", "value": "−"}, {"measurement": "MBC test growth score", "setting": "[1]; 80% preservative, 72 hour", "value": "−"}, {"measurement": "MBC test growth score", "setting": "[1]; 90% preservative, 8 hour", "value": "−"}, {"measurement": "MBC test growth score", "setting": "[1]; 90% preservative, 24 hour", "value": "−"}, {"measurement": "MBC test growth score", "setting": "[1]; 90% preservative, 48 hour", "value": "−"}, {"measurement": "MBC test growth score", "setting": "[1]; 90% preservative, 72 hour", "value": "−"}, {"measurement": "MBC test growth score", "setting": "[1]; 100% preservative, 8 hour", "value": "−"}, {"measurement": "MBC test growth score", "setting": "[1]; 100% preservative, 24 hour", "value": "−"}, {"measurement": "MBC test growth score", "setting": "[1]; 100% preservative, 48 hour", "value": "−"}, {"measurement": "MBC test growth score", "setting": "[1]; 100% preservative, 72 hour", "value": "−"}, {"measurement": "MBC test growth score", "setting": "[2]; 10% preservative, 8 hour", "value": "+/−"}, {"measurement": "MBC test growth score", "setting": "[2]; 10% preservative, 24 hour", "value": "−"}, {"measurement": "MBC test growth score", "setting": "[2]; 10% preservative, 48 hour", "value": "−"}, {"measurement": "MBC test growth score", "setting": "[2]; 10% preservative, 72 hour", "value": "−"}, {"measurement": "MBC test growth score", "setting": "[2]; 20% preservative, 8 hour", "value": "+/−"}, {"measurement": "MBC test growth score", "setting": "[2]; 20% preservative, 24 hour", "value": "−"}, {"measurement": "MBC test growth score", "setting": "[2]; 20% preservative, 48 hour", "value": "−"}, {"measurement": "MBC test growth score", "setting": "[2]; 20% preservative, 72 hour", "value": "−"}, {"measurement": "MBC test growth score", "setting": "[2]; 30% preservative, 8 hour", "value": "−"}, {"measurement": "MBC test growth score", "setting": "[2]; 30% preservative, 24 hour", "value": "−"}, {"measurement": "MBC test growth score", "setting": "[2]; 30% preservative, 48 hour", "value": "−"}, {"measurement": "MBC test growth score", "setting": "[2]; 30% preservative, 72 hour", "value": "−"}, {"measurement": "MBC test growth score", "setting": "[2]; 40% preservative, 8 hour", "value": "−"}, {"measurement": "MBC test growth score", "setting": "[2]; 40% preservative, 24 hour", "value": "−"}, {"measurement": "MBC test growth score", "setting": "[2]; 40% preservative, 48 hour", "value": "−"}, {"measurement": "MBC test growth score", "setting": "[2]; 40% preservative, 72 hour", "value": "−"}, {"measurement": "MBC test growth score", "setting": "[2]; 50% preservative, 8 hour", "value": "−"}, {"measurement": "MBC test growth score", "setting": "[2]; 50% preservative, 24 hour", "value": "−"}, {"measurement": "MBC test growth score", "setting": "[2]; 50% preservative, 48 hour", "value": "−"}, {"measurement": "MBC test growth score", "setting": "[2]; 50% preservative, 72 hour", "value": "−"}, {"measurement": "MBC test growth score", "setting": "[2]; 60% preservative, 8 hour", "value": "−"}, {"measurement": "MBC test growth score", "setting": "[2]; 60% preservative, 24 hour", "value": "−"}, {"measurement": "MBC test growth score", "setting": "[2]; 60% preservative, 48 hour", "value": "−"}, {"measurement": "MBC test growth score", "setting": "[2]; 60% preservative, 72 hour", "value": "−"}, {"measurement": "MBC test growth score", "setting": "[2]; 70% preservative, 8 hour", "value": "−"}, {"measurement": "MBC test growth score", "setting": "[2]; 70% preservative, 24 hour", "value": "−"}, {"measurement": "MBC test growth score", "setting": "[2]; 70% preservative, 48 hour", "value": "−"}, {"measurement": "MBC test growth score", "setting": "[2]; 70% preservative, 72 hour", "value": "−"}, {"measurement": "MBC test growth score", "setting": "[2]; 80% preservative, 8 hour", "value": "−"}, {"measurement": "MBC test growth score", "setting": "[2]; 80% preservative, 24 hour", "value": "−"}, {"measurement": "MBC test growth score", "setting": "[2]; 80% preservative, 48 hour", "value": "−"}, {"measurement": "MBC test growth score", "setting": "[2]; 80% preservative, 72 hour", "value": "−"}, {"measurement": "MBC test growth score", "setting": "[2]; 90% preservative, 8 hour", "value": "−"}, {"measurement": "MBC test growth score", "setting": "[2]; 90% preservative, 24 hour", "value": "−"}, {"measurement": "MBC test growth score", "setting": "[2]; 90% preservative, 48 hour", "value": "−"}, {"measurement": "MBC test growth score", "setting": "[2]; 90% preservative, 72 hour", "value": "−"}, {"measurement": "MBC test growth score", "setting": "[2]; 100% preservative, 8 hour", "value": "−"}, {"measurement": "MBC test growth score", "setting": "[2]; 100% preservative, 24 hour", "value": "−"}, {"measurement": "MBC test growth score", "setting": "[2]; 100% preservative, 48 hour", "value": "−"}, {"measurement": "MBC test growth score", "setting": "[2]; 100% preservative, 72 hour", "value": "−"}]}
